Entries after “also recorded” stand apart in the source; their conditions may differ.
Experiments:
[1] = tested on: murine NSCs in adhesion (Laminin coated dishes); experiment: Phage biopanning (Ph.D.-7 library) against adhering NSCs; assay type: binding; settings: for Frequency, internalized phage clones / Frequency, eluted phage clones: clones sequenced after three rounds of biopanning; for Frequency, internalized phage clones / %, internalized phage clones: internalized clones (IP); for %, internalized phage clones / %, eluted phage clones: consensus after three rounds of biopanning; for Frequency, eluted phage clones / %, eluted phage clones: cell membrane bound phages (MP)
Experimental: (§1) Two days prior cell seeding murine NSCs were mechanically dissociated in order to seed the maximum percentage of stem cells.
NSCs, three million per plate, were seeded over Laminin coated 10 cm Petri dishes (Falcon). After an overnight incubation in 10 ml of βFGF supplemented (10 ng/ml) neural basal media, cells were washed with pre-warmed Incubation Medium.
(§2) The Ph.D.-7 phage library was used (New England Biolabs), composed of phage clones with random 7-mer peptides fused to the N-terminal of PIII, a minor coat protein of M13 phage.
(§3) Before biopanning experiments against NSCs in adhesion, the phage library was incubated in a Laminin-coated tissue culture dish in order to remove phages with affinity to the Laminin coated plastic surface (negative selection). Mouse Laminin (10 mL at 25 μg/ml concentration) (Roche) was incubated overnight at 37° C. 10^12 cfu of phages were incubated for one hour at 37° C. in pre-warmed Incubation Medium (DMEM supplemented with 0.1% BSA) in Laminin-coated plastic surfaces (setting for adhering NSCs) or plain plastic surfaces (setting for NSCs in suspension). Then incubation Medium and a total volume of five washes of Washing Buffer (DPBS supplemented with 1% BSA and 0.05% Tween-20) were collected and eluted phages were amplified as described in the standard protocol of New England Biolabs.
(§4) 10^12 cfu of the negatively selected phage library were diluted in 10 ml Incubation Medium and pipetted onto the adhering NSCs or NSCs in suspension.
(§5) After 1 hour of incubation at 37° C. cells were washed five times with pre-warmed Washing Buffer, cell membrane bound phages (MP) and internalized clones (IP) were recovered from independent duplicates of differentiating progenies by eluting and/or lysing the cells respectively. The cell surface was stripped by a 5 minutes incubation of 5 ml of Glycine Buffer (0.2 M Glycine-HCl supplemented with 1 mg/ml BSA (pH 2.2)) at RT. Eluted Phages were neutralized with 5 ml of 1 M Tris-HCl buffer (pH 8) and amplified.
(§6) Cells were then lysed with 9 ml of Lysing Buffer (0.1% TEA in PBS) for 5 minutes at RT. Internalized phages were neutralized with 1 ml of 1 M Tris-HCl buffer.
(§7) Neutralized phages were titered by infection of Escherichia coli to monitor the selection. Internalized and eluted phages were amplified separately for another round of selection. Three rounds of positive selection were performed. At round number two and three the biopannings of internalized and eluted phages were performed in different cell cultures (but with identical culture conditions) by collecting the phages of interest (i.e. internalized phages from libraries of internalized phages) and discarding the leftovers.
(§8) After the third round of biopanning, phage clones were randomly picked out from the titer plates and sequenced. Thirty phage plaques per each set of phages were randomly picked for sequencing. A small number of clones wasn't successfully sequenced. […] In the case of panning against NSC in suspension the highest consensus was for KLPGWSG (SEQ ID NO: 10) (47.36 for MP), GETRAPL (SEQ ID NO: 12) (14.28% for IP and 10.52% for MP) and HAIYPRH (SEQ ID NO: 11) (28.57% for IP and 5.26% for MP).

[2] = tested on: NSCs cultured in suspension; experiment: Phage biopanning (Ph.D.-7 library) against NSCs in suspension; assay type: binding, murine; settings: after three rounds of biopanning; for %, eluted phage clones / Frequency, eluted phage clones: membrane bound phages (MP); for %, internalized phage clones / Frequency, internalized phage clones: internalized clones (IP)
Experimental: as §1, §2, §3, §4, §5, §6, §7, §8

murine NSCs [3] = experiment: Imaging and cell proliferation assay (CellTiter 96 MTS) on assembled hydrogels, murine NSCs; assay type: cell-based; settings: 7 DIV
Experimental: (§9) In vitro tests were performed as previously described (8), in order to assess whether the biomaterials (assembled hydrogels) obtained with the SAPs of the present invention influenced NSCs adhesion, survival and/or differentiation. SAPeptides (30 μl for each well at a concentration of 10 mg/ml) were assembled into 96 multiwells two hours before cell. Cells (at a concentration of 2×10^4 cells/cm^2) were seeded on the top-surface of each assembled scaffold. Initially, cells were cultured with basal medium supplemented with βFGF (10 ng/ml), added to […]. At 3 days in vitro (DIV), βFGF medium was replaced with Leukemia Inhibitory Factor (LIF, Chemicon) (20 ng/ml) and Brain Derived Neurotrophic Factor (BDNF, Peprotech) (20 ng/ml). Fresh medium was added every three days. For both viability and differentiation assays positive and negative controls consisted of Cultrex-BME® substrate (R&D systems) (1:100 dilution in basal medium) and untreated bottom well surfaces respectively. Cell viability was quantified via CellTiter 96® Aqueous Proliferation Assay (Promega) at 7 DIV as recommended in the Promega protocol. After calibrating the linear response between the cell number and absorbance values, proliferated cell populations were quantified (n=5) by using a Vmax microplate reader (Molecular Devices) at 490 nm wavelength. Values, reported as means±standard error of the mean, were blanked to their respective controls consisting of same substrates and cell culture media without cells.

human NSCs = experiment: Imaging and cell proliferation assay (CellTiter 96 MTS) on assembled hydrogels, human NSCs; assay type: cell-based; settings: 7 DIV, scaffolds 10 mg/ml, vs control, P<0.03
Experimental: as §9

murine NSCs [4] = experiment: Immunofluorescence of differentiated NSC progeny on SAP scaffolds, murine; assay type: cell-based; settings: scaffold stiffness 100, 500 and 1000 Pa
Experimental: as §9
Immunofluorescence tests were performed for assaying the phenotypes of the differentiated human and murine NSC progenies. In the case of KLP and Ac-KLP just murine NSC have been used. Ac-KLP and KLP scaffolds were prepared at different concentrations in order to display three different stiffness values (viz. 100, 500 and 1000 Pa). This was done to assess the influence of scaffold concentration (and consequently its stiffness) over NSC differentiation. All the other peptides were tested at 1% v/w concentration instead. The following antibodies were used: rabbit polyclonal against GFAP (1:500, DakoCytomation) for astrocytes, mouse monoclonal against βIII-Tubulin (1:500, Covance) for neurons, mouse monoclonal against GalC (1:200, Chemicon) and O4 (1:200, Chemicon) for oligodendrocyes. Secondary Abs were Goat anti Mouse Alexa 488 (1:1000, Molecular Probes), Goat anti Mouse Cy3 (1:1000, Jackson Immunoresearch), Goat anti Rabbit Cy3 (1:1000, Jackson Immunoresearch). Cell nuclei were counterstained with DAPI (Molecular Probes). Quantitative analyses were performed by counting 100-300 cells for each of 9 randomly chosen fields over a total of 3 independent experiments. Phase contrast and fluorescence images of the adhering cells were acquired via Zeiss microscopes Axioplan 2 and ApoTome System at one week after seeding.

| Substance | Frequency, internalized phage clones [1] | %, internalized phage clones [1] | Frequency, eluted phage clones [1] | %, eluted phage clones [1] | other results |
| --- | --- | --- | --- | --- | --- |
| TPLSSHS (Prepared by synthesis) [heptapeptide domain found by phage biopanning against NSCs] | 1 | 3.5% | – | – | – |
| YRMPIWP (Prepared by synthesis) [heptapeptide domain found by phage biopanning against NSCs] | 1 | 3.5% | – | – | – |
| KLPGWSG (Prepared by synthesis) [heptapeptide domain found by phage biopanning against NSCs] | – | – | – | – | %, eluted phage clones [2]: 47.36%; Frequency, eluted phage clones [2]: 9 |
| ALTPWAF (Prepared by synthesis) [heptapeptide domain found by phage biopanning against NSCs] | – | – | – | – | %, eluted phage clones [2]: 10.52%; Frequency, eluted phage clones [2]: 2 |
| SSLSVND (Prepared by synthesis) [heptapeptide domain found by phage biopanning against NSCs] | 3 | 10.7% | 1 | 4.2% | – |
| GKPMPPM (Prepared by synthesis) [heptapeptide domain found by phage biopanning against NSCs] | – | – | – | – | %, eluted phage clones [2]: 10.52%; Frequency, eluted phage clones [2]: 2 |
| GETRAPL (Prepared by synthesis) [heptapeptide domain found by phage biopanning against NSCs] | – | – | – | – | %, internalized phage clones [2]: 14.28%; Frequency, internalized phage clones [2]: 2; %, eluted phage clones [2]: 10.52%; Frequency, eluted phage clones [2]: 2 |
| NH2-QHLPRDHGGGLDLKLDLKLDLK-CONH2 (H-QHLPRDHGGGLDLKLDLKLDLK-NH2) | – | – | – | – | cell viability / proliferated cell population (MTS) (murine NSCs [3]; scaffolds 10 mg/ml, vs control, P<0.005): significantly fostered cell viability; also recorded: significantly favored; cell viability / proliferated cell population (MTS) (human NSCs): significantly fostered cell viability; also recorded: significantly favored |
| SSELVTH | – | – | 1 | 4.2% | – |
| TPPFAAW | – | – | 1 | 4.2% | – |
| SLPKLPP (Prepared by synthesis) [heptapeptide domain found by phage biopanning against NSCs] | 1 | 3.5% | – | – | – |
| QHLPRDH (Prepared by synthesis) [heptapeptide domain found by phage biopanning against NSCs] | 4 | 14.2% | 2 | 8.3% | – |
| TAVNSDA | – | – | 1 | 4.2% | – |
| HAIYPRH (Prepared by synthesis) [heptapeptide domain found by phage biopanning against NSCs] | – | – | – | – | %, internalized phage clones [2]: 28.57%; Frequency, internalized phage clones [2]: 4; %, eluted phage clones [2]: 5.26%; Frequency, eluted phage clones [2]: 1 |
| LQAIPRN (Prepared by synthesis) [heptapeptide domain found by phage biopanning against NSCs] | 1 | 3.5% | – | – | – |
| NH2-KLPGWSGGGGLDLKLDLKLDLK-CONH2 (H-KLPGWSGGGGLDLKLDLKLDLK-NH2) | – | – | – | – | cell morphology, adhesion and spreading on assembled hydrogels (murine NSCs [3]): fostered NSCs adhesion and spreading similarly to FAQ; differentiated neurons (βIIITubulin positive cells) in correspondence of stiffness reductions (murine NSCs [4]): significant increments |
| LTTGSGS | – | – | 1 | 4.2% | – |
| TTTPTTP | – | – | 1 | 4.2% | – |
| SASHWQI (Prepared by synthesis) [heptapeptide domain found by phage biopanning against NSCs] | 1 | 3.5% | – | – | – |
| FAQRVPP (Prepared by synthesis) [heptapeptide domain found by phage biopanning against NSCs] | – | 53.5% | 15 | 62.5% | – |
| YIIPMHD (Prepared by synthesis) [heptapeptide domain found by phage biopanning against NSCs] | 1 | 3.5% | 1 | 4.2% | – |
| SILPYPY (Prepared by synthesis) [heptapeptide domain found by phage biopanning against NSCs] | – | – | – | – | %, internalized phage clones [2]: 14.28%; Frequency, internalized phage clones [2]: 2 |

Reference: US9273101B2, “Functionalized biomaterials for tissue regeneration” (Nanomed3D S.R.L., priority 2011, dated 2016)
